A word on the Ki: it is the dissociation constant of the complex between target and ligand, obtained from inhibition or displacement. The low end stands for higher affinity, the high end for lower affinity. The Kd is the free concentration of one partner at which half of the binding sites on the other are occupied at equilibrium, for simple one-to-one binding. A high value points to lower affinity. A word on the inhibition: it is the drop in the measured response relative to a control, in per cent. As a reminder, the IC50 is the point on the concentration scale where inhibition reaches its midpoint.

For test [1], the target named is T1, hGSTM1-1 (Homo sapiens, UniProt P09488).
T1 sequence (P09488 1-218): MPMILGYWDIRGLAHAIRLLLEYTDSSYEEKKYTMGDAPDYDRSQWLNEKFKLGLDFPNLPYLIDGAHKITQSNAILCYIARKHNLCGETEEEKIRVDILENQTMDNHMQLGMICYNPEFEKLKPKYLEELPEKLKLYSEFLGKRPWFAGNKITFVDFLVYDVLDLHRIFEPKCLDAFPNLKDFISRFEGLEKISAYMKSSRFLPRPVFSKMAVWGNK
Put plainly: Kinetic inhibition study with pirimicarb (Lineweaver-Burk and secondary plots). Format: biochemical. More on the design: made in house; host or cells: E. coli. To be noted: for Ki: Ki (binding to free enzyme). As to the method: Initial velocities for the catalyzed reaction of the isoenzyme hGSTM1-1 with GSH as a variable substrate were performed at 37 °C in a total volume of 1 mL mixture containing 0.75 μg of the isoenzyme GSTM1-1, 0.1 M potassium phosphate buffer (pH 6.5), 1 mM CDNB and different concentrations of GSH in the range of 0.0175–3.75 mM in the presence of different concentrations of the insecticide pirimicarb (0–40 μM). With CDNB as a variable substrate, the reaction mixture total volume (1 mL) contained 0.75 μg of the isoenzyme GSTM1-1, 0.1 M potassium phosphate buffer (pH 6.5), 1 mM GSH and CDNB in the concentration range of 0.015–1.5 mM in the presence of different concentrations of pirimicarb (0–30 μM). The kinetic parameters were determined using the computer program GraphPad Prism 7.

The target of test [2] is T1, hGSTM1-1. Description: biochemical. As to conditions: for Effect on inactivation of hGSTM1-1 by GS-ESF: pH 7.4. The source says:
Furthermore, the catalytic activity of hGSTM1-1 cannot be regained by extensive dialysis or gel filtration on Sephadex G-25. […] The Kapp calculated by inactivation experiments is in good agreement to that determined by kinetic inhibition analysis.
The rate of inactivation was followed by periodically removing samples for assays of enzymatic activity.

The target of test [3] is T1, hGSTM1-1. Put plainly: biochemical. More on the design: made in house; host or cells: E. coli. As to conditions: 25 μM pesticide; CDNB (1 mM)-GSH (2.5 mM) assay; mean of three assays, variation less than 5%; read-out: Inhibition (%). Here is the method: (§1) Reduced GST assays were performed by monitoring the formation of the conjugate of CDNB (1 mM) with GSH (2.5 mM) at 340 nm (ε = 9.6 mM^−1cm^−1) for 120 s according to a published method. One unit of enzyme activity is defined as the amount of enzyme that produces 1 μmol of product per minute under the assay conditions.
Pesticide screening and inhibition potency evaluation towards hGSTM1-1 were carried out in the assay system described above in the presence of 25 μM pesticide diluted in acetone. During the assay, no measurable pesticide/GSH reaction was detected. The percentage of enzyme inhibition (I) was calculated using the following equation:%I = [(Ro − Ri)/Ro] × 100(3) where Ro is the unit of enzyme activity increase for the uninhibited reaction and Ri is the rate of increase for the inhibited reaction. Both Ri and Ro correspond to the same substrate concentration.

For test [4], the target named is T1, hGSTM1-1. Description: IC50 determination, concentration-response in CDNB-GSH assay. More on the design: made in house; host or cells: E. coli. The test is classed as biochemical. Here is the method:
as §1
[…]. The IC50 values were determined using the program GraphPad Prism (GraphPad Software Inc., Version 7, San Diego, CA, USA).

[5] abbreviates: GSH as variable substrate, 37 °C, pH 6.5.

Turning to `Cc1nc(N(C)C)nc(OC(=O)N(C)C)c1C` [Pirimicarb, pirimicarb], at hGSTM1-1 [1] (CDNB as variable substrate, 37 °C, pH 6.5, 1/Vmax app versus [Pirimicarb]), the “Ki' (binding to enzyme-CDNB complex)” value is 44.7 ± 1.14 µM. The Inhibition pattern entry on hGSTM1-1 [1] (GSH as variable substrate) is reported as “mixed-type inhibition”. In addition, at hGSTM1-1 [1] (setting [5]), the “Ki' (binding to enzyme-GSH complex)” value came out at 35.97 ± 2.57 µM and the affinity corresponds to a Ki of 24.5 ± 2.86 µM. Besides, the Ki at hGSTM1-1 [1] (CDNB as variable substrate, 37 °C, pH 6.5, Slope versus [Pirimicarb]) came out at 37.7 ± 1.03 µM. In addition, the Inhibition pattern result at hGSTM1-1 [1] (towards CDNB) is “mixed-type inhibition”. In addition, at hGSTM1-1 [2], the Kd stood at 15.5 ± 1.2 µM and the “Effect on inactivation of hGSTM1-1 by GS-ESF” value was “diminish the observed rate of enzyme inactivation”. Besides, the inhibition at 25 µM on hGSTM1-1 [3] is 52.3%. The compound also had an IC50 against hGSTM1-1 [4] of 17.5 ± 1.75 µM.

Turning to `N[C@@H](CCC(=O)N[C@@H](CSCc1ccc([N+](=O)[O-])cc1)C(=O)NCC(=O)O)C(=O)O` [S-nitrobenzyl-GSH, S-nitrobenzyl-glutathione], the “Effect on inactivation of hGSTM1-1 by GS-ESF” value on hGSTM1-1 [2] is on record as “diminish the observed rate of enzyme inactivation”.

Values taken from publication PMC8998827, “Ligandability Assessment of Human Glutathione Transferase M1-1 Using Pesticides as Chemical Probes” (International Journal of Molecular Sciences, 2022).
